How the values were obtained:
[1] = tested on: MYOD1-positive urine-derived cells; assay: Promotion of myotube induction by low molecular compounds, myosin heavy chain immunocytochemistry; assay type: cell-based, human; conditions: compound added to differentiation medium with doxycycline; FIG. 3A 1 μM, FIG. 3B 10 μM
Experimental: (§1) The MYOD1-positive urine-derived cells were plated onto a collagen-coated culture dish or plate and cultured in a differentiation medium supplemented with doxycycline (e.g., 1 μg/ml) (the medium containing high-glucose-containing DMEM with GlutaMAX-I (Thermo Fisher Scientific; 10569-010), 5% horse serum, ITS Liquid Media Supplement (Sigma; 13146), and 1 μg/ml doxycycline) to induce the myotubes. Whether or not muscular differentiation could be promoted with the addition of a low molecular compound in a compound library (Sigma; S990043-EPI1) to the differentiation medium was examined. The low molecular compound was added at a final concentration of 0.1, 1, or 10 μM. Myotube induction was evaluated by immunocytochemistry and Western blotting.
For immunocytochemistry, cultured cells were washed in PBS, fixed in 4% paraformaldehyde, and then incubated with the addition of 0.1% Triton-X at room temperature for 10 minutes. The anti-myosin heavy chain antibody (1:50, R&D, Minneapolis, U.S.A.; MAB4470) and the anti-dystrophin antibody (1:30, Novocastra, Newcastle, UK; NCL-DYS1) were used as primary antibodies, and Alexa Fluor 546 goat anti-mouse IgG (H+L) (1:300, Invitrogen; A11003) was used as a secondary antibody. Nuclear staining was performed with the use of Hoechst 33342. An image was obtained using a fluorescence microscope (BZ-9000 or BZ-X800, KEYENCE, Osaka, Japan) and analyzed using the BZ-X Analyzer (KEYENCE).
As a result, it was founded that a degree of muscular differentiation evaluated in terms of the myosin heavy chain protein expression level by immunocytochemistry was enhanced to a significant extent with the addition of the epigenetic regulatory compound(s) to the differentiation medium (FIGS. 3 and 4). […] Also, effects of histone methyltransferase inhibitors (GSK343, SGC707, furamidine dihydrochloride, UNC2327, E7438, and MI-2 (menin-MLL inhibitor)), histone demethylase inhibitors (IOX 1 and GSK-J1), histone deacetylase (HDAC) inhibitors (VORINOSTAT, LMK-235, CAY10603, and BRD73954), SIRT2 inhibitor (SirReal 2), and PARP inhibitor (EB47) were observed. In FIG. 3, a horizontal axis represents a type of a compound added, and a vertical axis represents an area of a myosin heavy chain-positive region determined by immunocytochemistry. […] Statistical analysis was performed by a Kruskal-Wallis test at a significance level of p<0.05. “*,” “**,” and “***” indicate p<0.05, p<0.01, and p<0.001, respectively.

[2] = tested on: myotubes induced from urine-derived cells obtained from 4 healthy subjects; assay: Promotion of myotube induction, Western blotting of myosin heavy chain and dystrophin; assay type: cell-based, human; conditions: in the presence of DZNep; urine-derived cells from 4 healthy subjects
Experimental: as §1
The effects of DZNep on promoting myotube induction were also examined by Western blotting. […] The total protein concentration was measured using the BCA protein assay kit (Thermo Fisher Scientific; 23227), denaturation was performed using NuPAGE® LDS Sample Buffer (Thermo Fisher Scientific; NP0007), SDS-PAGE was performed on 3% to 8% NuPAGE® Novex Tris-Acetate Gel (Invitrogen; EA03785BOX), and the resultant was transferred onto a PVDF membrane (Millipore, Billerica, Mass., U.S.A.; IPVH304F0). […] After the antibody reaction, a band of interest was detected using the ECL Prime Western Blotting Detection Reagent (GE Healthcare, UK; RPN2232). […]

| Compound | degree of muscular differentiation evaluated in terms of the myosin heavy chain protein expression level by immunocytochemistry [1] | dystrophin expression by Western blotting [2] | myosin heavy chain expression by Western blotting [2] |
| --- | --- | --- | --- |
| O=C(NO)c1cccc(C(=O)NCCc2ccccc2)c1 [BRD73954] | observed | – | – |
| CC(C)(C)OC(=O)Nc1ccc(-c2cc(C(=O)NCCCCCCC(=O)NO)no2)cc1 [CAY10603] | observed | – | – |
| Cl.Nc1nccc2c1ncn2[C@@H]1C=C(CO)[C@@H](O)[C@H]1O [DZNep, 3-deazaneplanocin A hydrochloride] | high | expressed at high levels | expressed at high levels |
| CCN(c1cc(-c2ccc(CN3CCOCC3)cc2)cc(C(=O)NCc2c(C)cc(C)[nH]c2=O)c1C)C1CCOCC1 [E7438] | observed | – | – |
| Cl.Cl.Nc1ncnc2c1ncn2[C@@H]1O[C@H](C(=O)N2CCN(CC(=O)Nc3cccc4c3CNC4=O)CC2)[C@@H](O)[C@H]1O [EB47] | observed | – | – |
| CCCc1cc(C)[nH]c(=O)c1CNC(=O)c1cc(-c2ccnc(N3CCN(C)CC3)c2)cc2c1cnn2C(C)C [GSK343] | observed | – | – |
| O=C(O)CCNc1cc(N2CCc3ccccc3CC2)nc(-c2ccccn2)n1 [GSK-J1] | observed | – | – |
| O=C(O)c1ccc(O)c2ncccc12 [IOX 1] | observed | – | – |
| Cc1cc(C)cc(C(=O)NOCCCCCC(=O)NO)c1 [LMK-235] | observed | – | – |
| CCCc1cc2c(N3CCN(C4=NCC(C)(C)S4)CC3)ncnc2s1 [MI-2 (menin-MLL inhibitor)] | observed | – | – |
| O=C(NCC(=O)N1CCCC1)Nc1ccc2cnccc2c1 [SGC707] | observed | – | – |
| Cc1cc(C)nc(SCC(=O)Nc2ncc(Cc3cccc4ccccc34)s2)n1 [SirReal 2] | observed | – | – |
| O=C(CCCCCCC(=O)Nc1ccccc1)NO [VORINOSTAT] | observed | – | – |
| UNC2327 | observed | – | – |
